{
  "source": "paper PMC3667390",
  "about": "(Cancer immunology, immunotherapy : CII, 2009)",
  "test_system": "peptide-specific CD4 T cells",
  "format": "cell-based, human",
  "details": "ELIspot and proliferation; peptide 10 μg/ml, CEA protein 1 μg/ml, 20-24 hours; day 15 of in vitro stimulation; three replicates",
  "data": [
    {"sequence": "MELLLVNKLKWNLAA [Peptide C140]", "values": [
      {"measurement": "reactivity of peptide-specific CD4 T cells", "value": "did not respond"}
    ]}
  ]
}
